Measurements from US10196345B2, “MAO-B selective inhibitor compounds, pharmaceutical compositions thereof and uses thereof” (The University of British Columbia, priority 2013, dated 2019).
“And” between values parts separate entries of the source, which are not always exact repeats. Equal values may be shown once. “Also recorded” adds a separate entry of the source. Read-outs that look alike come from different tables or passages of the source.

Key:
[1] = test system: rat intestinal epithelial (IEC-6) cells; assay: TEER, LPS-induced barrier loss, IEC-6 cells; assay type: cell-based; settings: Transwell, LPS challenge at 72 hours
Method: (§1) In each case, TEER was measured every 48 hours after treatment. Statistically significant differences were identified.
(§2) Transepithelial Resistance (TER) is a common method to screen for barrier integrity. […] For select compounds barrier integrity and protection is also measured using tracer studies because TER accuracy in examining TJ integrity has recently come into question (Van Itallie et al., 2008). Fluorescein isothiocyanate conjugated 10 kD dextran (Invitrogen™) will be added to the apical Transwell™ compartment, fixed, and examined for dextran permeation (Umeda et al., 2006). We expect control and deprenyl-treated cells with an intact barrier to maintain the tracer at the apical membrane region, whereas the breached monolayers will show tracer permeation between the cells.

[2] = test system: Porcine ligament epithelial (PLE) cells; assay: TEER, LPS-induced barrier loss, PLE cells; assay type: cell-based; settings: Transwell, LPS challenge at 72 hours
Method: as §1, §2

[3] = mouse hepatocyte stability assay; settings: after 60 minutes at room temperature
[4] = target: T1, recombinant human MAO-A (Homo sapiens, UniProt P21397); assay: Cell-free Fluorescent Monoamine Oxidase A&B Detection Assay, MAO-A; assay type: biochemical
T1 sequence (P21397 1-527): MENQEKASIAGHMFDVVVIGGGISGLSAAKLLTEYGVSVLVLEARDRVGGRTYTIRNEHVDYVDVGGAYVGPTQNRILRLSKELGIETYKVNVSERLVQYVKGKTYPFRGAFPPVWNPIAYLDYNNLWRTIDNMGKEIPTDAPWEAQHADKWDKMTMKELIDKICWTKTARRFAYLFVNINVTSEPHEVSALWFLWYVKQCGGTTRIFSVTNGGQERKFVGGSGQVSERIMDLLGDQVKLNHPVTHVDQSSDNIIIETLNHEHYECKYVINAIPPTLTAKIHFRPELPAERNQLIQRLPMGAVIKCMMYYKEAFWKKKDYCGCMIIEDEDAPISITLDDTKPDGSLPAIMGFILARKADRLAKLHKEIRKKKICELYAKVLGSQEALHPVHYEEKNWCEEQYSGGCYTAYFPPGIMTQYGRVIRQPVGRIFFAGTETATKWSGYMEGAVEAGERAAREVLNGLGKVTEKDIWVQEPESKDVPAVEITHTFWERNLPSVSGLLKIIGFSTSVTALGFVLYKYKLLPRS
Method: (§3) The assay was repeated to confirm data.
(§4) MAO B specific inhibitory activity and selectivity over MAO A is assayed using a commercial kit [Fluoro MAO A and B detection kit (Cell Technology Inc™)]. This kit uses a non-fluorescent detection reagent to measure H2O2 released from the conversion of an MAO A and MAO B substrate specific to its aldehyde. Furthermore, H2O2 oxidizes the detection reagent in a 1:1 stoichiometry to produce a fluorescent product (resorufin). […] This information is then provided to the medicinal chemists to help direct synthesis of subsequent iterations.

[5] = stability assay in human liver microsomes; settings: after 60 minutes at room temperature
[6] = in vitro BBB permeability in MDCK-WT cells; settings: dog, MDCK
From the text: (§5) Wildtype Madin-Darby canine cells (MDCK-WT) were used to predict CNS permeability of compounds PS-RG0103, PS-RG0216, PS-RG0245 and PS-AD0191. […] J Allergy Clin Immunol. 1990; 86(6 pt 2): p. 1025-8.
(§6) Novel MAO B inhibitors selected based on the above screening program will be screened using an in vitro model of blood brain barrier (BBB). Madin-Darby canine kidney (MDCK-WT) and MDCK cells transfected with the human MDR1 gene (MDCK-MDR1) are well established in vitro models used to predict a compound's ability to permeate the blood brain barrier (BBB). […] Apparent permeability (Papp), Efflux ratio (Papp B-A/Papp A-B), as well as the Net flux ratio (Efflux ratioMDCK-MDR1/Efflux ratioMDCK-WT) can be calculated to identify compound BBB permeability and identify compounds that are substrates of P-gp.

[7] = test system: Madin Darby canine kidney (MDCK-I) cells; assay: TEER in MDCK-I cells; assay type: cell-based; settings: for TEER, LPS+deprenyl vs control: MDCK-I cells, Transwell, LPS range, 40 μM deprenyl; for 144-hour barrier (TEER) vs control: MDCK-I, treated at 72 hours; for effect on TEER (MAO A, B, AB inhibitors): no concentration given
Method: In each case, TEER was measured every 48 hours after treatment.
Transwell cultures were treated at 72 hours (T) post-cell plating.
Transepithelial Resistance (TER) is a common method to screen for barrier integrity. […] Fluorescein isothiocyanate conjugated 10 kD dextran (Invitrogen™) will be added to the apical Transwell™ compartment, fixed, and examined for dextran permeation (Umeda et al., 2006).
Amphiregulin (AR) is an EGFR binding ligand and may play a pivotal role in the previously described signaling axis (see FIGS. 15-17). […] (ii) GI [intestinal epithelial cell (IEC)] and (iii) classical [Madin-Darby canine kidney (MDCK-1)].

[8] = test system: IL-8 protein expression in Caco-2 cells; assay: IL-8 protein expression in LPS- and TNFα-treated Caco-2 cells; assay type: cell-based, human; settings: Caco-2, 1 μg/mL LPS or 50 ng/mL TNFα + 20 μM compound, 4, 12 or 24 h
Method: Caco-2 cells were seeded at 83300 cells/cm^2 on a polystyrene 96-well plate in DMEM medium (#10313-021, Gibco™) containing 10% FBS. On day 5 after seeding, wells were replaced with fresh media containing 2.5% FBS. […] Supernatants of the treated cells were analyzed for pro- and anti-inflammatory cytokine proteins using the Human Proinflammatory 7-Plex Ultra-Sensitive Kit™ (K15008C, MSD™) measured by the Sector Imager 2400A (MSD™). Left panel: Absolute concentrations of IL-8 protein in supernatants of cells treated with control (media only), 1 μg/mL LPS or 50 ng/mL TNFα. […] Values were determined by subtracting supernatant cytokine concentrations of control from supernatant cytokine concentrations of treated cells. Results are expressed as mean±standard deviation (n=3).

[9] = test system: human intestinal microvascular endothelial cells (HIMEC); assay: IL-8, IL-6 and TNFα protein expression in LPS-treated HIMEC; assay type: cell-based; settings: 1000 ng/mL LPS + 10 μM compound, 1 or 3 hrs
Method: Human microvascular endothelial cells were seeded at 37500 cells/cm^2 on a fibronectin-coated polystyrene 96-well plate in MCDB 131 medium (#10372-019, Gibco™) containing 20% FBS. On day 2 after seeding, wells were replaced with fresh media containing 2.5% FBS. […] Supernatants of the treated cells were analyzed for pro- and anti-inflammatory cytokine proteins using the Human Proinflammatory 7-Plex Ultra-Sensitive Kit (K15008C, MSD) measured by the Sector Imager 2400A (MSD). Left panel: Absolute concentrations of IL-8, IL-6 and TNFα protein in supernatants of cells treated with control (media only) or increasing concentrations of LPS. Right panel: Absolute IL-8, IL-6 or TNFα concentrations induced or attenuated by 1000 ng/mL LPS±the novel MAO B inhibitors. Values were determined by subtracting supernatant cytokine concentrations of control from supernatant cytokine concentrations of treated cells. Results are expressed as mean±standard deviation (n=3). Statistical significance was determined using a one-way ANOVA and Tukey post-hoc test in SPSS (IBM) comparing control and LPS (left panel) or LPS and novel MAO B inhibitors (right panel). *p<0.05, **p<0.001

[10] = test system: C. rodentium infections; assay: seven-day C. rodentium infection model; assay type: in vivo
[11] = stability assay in mouse liver microsomes; settings: after 60 minutes at room temperature
[12] = test system: DSS induced colitis in C57BL/6 mice; assay: 3% DSS induced colitis, claudin-3 localization; assay type: in vivo; settings: 3% DSS in drinking water, day 7, C57BL/6 mice
From the text: FIGS. 21A and B show a 3% DSS induced colitis and protects epithelial cell-cell claudin-3 localization. […] (A). […] (B). […] Increased cell infiltrate is evident in the DSS-treated animals by the DAPI (blue) staining.

[13] = test system: Wildtype Madin-Darby canine cells (MDCK-WT); assay: in vitro BBB permeability in MDCK-WT cells; settings: MDCK-WT; one-way ANOVA, Dunnett's test
From the text: as §5, §6

[14] = hepatocytes, 1 h
[15] = target: T2, recombinant human MAO-B (Homo sapiens, UniProt P27338); assay: Cell-free Fluorescent Monoamine Oxidase A&B Detection Assay, MAO-B; assay type: biochemical
T2 sequence (P27338 1-520): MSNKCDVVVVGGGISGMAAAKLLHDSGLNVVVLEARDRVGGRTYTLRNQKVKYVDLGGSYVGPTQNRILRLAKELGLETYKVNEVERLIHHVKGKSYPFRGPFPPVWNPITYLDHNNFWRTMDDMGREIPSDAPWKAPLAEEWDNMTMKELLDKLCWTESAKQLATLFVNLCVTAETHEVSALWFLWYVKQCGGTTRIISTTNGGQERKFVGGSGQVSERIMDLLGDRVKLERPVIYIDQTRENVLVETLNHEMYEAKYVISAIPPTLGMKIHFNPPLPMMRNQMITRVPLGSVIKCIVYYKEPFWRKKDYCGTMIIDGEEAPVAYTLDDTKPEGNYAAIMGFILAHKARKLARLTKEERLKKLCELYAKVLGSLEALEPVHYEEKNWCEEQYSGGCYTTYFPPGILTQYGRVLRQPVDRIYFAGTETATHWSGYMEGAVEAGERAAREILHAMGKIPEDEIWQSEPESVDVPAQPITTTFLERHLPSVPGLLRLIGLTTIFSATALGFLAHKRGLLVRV
Method: as §3, §4

[16] = test system: MAO activity in adipocytes; settings: cited from earlier work
[17] = test system: AR protein secretion; assay: amphiregulin (AR) protein secretion, MDCK-I cells; assay type: cell-based, canine; settings: no concentration given
[18] = obese and non-obese rats; cited from earlier work
[19] = test system: rat periodontal disease model; settings: cited from earlier work
[20] = seven-day C. rodentium infection, preliminary

C#CCN(C)[C@H](C)Cc1ccccc1 [Deprenyl]
TEER, LPS+deprenyl vs control [1]: rescues LPS reduction of TEER
TEER, LPS+deprenyl vs control ([1]; listed as deprenyl): significantly induced TEER above control
TEER, LPS+deprenyl vs control [2]: rescues LPS reduction of TEER
TEER, LPS+deprenyl vs control ([2]; listed as deprenyl): significantly induced TEER above control
compound remaining, mouse hepatocyte stability [3]: less than 2.5%
IC90 ([4]; read-out: IC90 MAO-A (μM)): 9.38 µM
compound remaining in human microsome [5]: 15%
Papp [6]: 44 ± 2.5 ×10⁻⁶ cm/s
TEER, LPS+deprenyl vs control [7]: rescues LPS reduction of TEER
TEER, LPS+deprenyl vs control ([7]; listed as deprenyl): significantly induced TEER above control
TEER, co-treatment with H2O2 ([7]; MDCK-I on Transwell membranes, H2O2): increased TEER significantly above the control
144-hour barrier (TEER) vs control ([7]; 5 μm inhibitor): increased over control
144-hour barrier (TEER) vs control ([7]; 40 μm inhibitor): increased over control
effect on TEER (MAO A, B, AB inhibitors) [7]: increased TEER
IL-8 protein expression [8]: attenuation of IL-8 protein expression
IL-8, IL-6 and TNFα protein expression [9]: attenuation
bacterial growth rates ([10]; C. rodentium): did not influence bacterial growth rates
TJ protein localization at the cell periphery [10, 20]: intact
hyperplastic phenotype [10, 20]: not apparent
compound remaining in mouse microsome [11]: less than 2.5%
claudin-3 localization [12]: better localized to epithelial cell-cell contacts

C[C@H](Cc1ccc(OCc2ccc(Br)c(Cl)c2)cc1)N(C)CC(=O)O.Cl [PS-RG0216, (R)—N-(1-(4-((4-bromo-3-chlorobenzyl)oxy)phenyl)propan-2-yl)-N-methylglycine hydrochloride]
IC50 MAO-A (μM) ([4]; cell-free, recombinant human MAO-A, hydrochloride): no activity on MAO-A; also recorded: Does not
compound remaining in human microsome [5]: 91%
permeability compared with cetirizine [13]: not different from cetirizine
Papp [6]: 1.2 ± 0.1 ×10⁻⁶ cm/s
IL-8 protein expression [8]: attenuation of IL-8 protein expression
compound remaining, mouse hepatocyte stability [14]: 100%
IC90 [15]: 1020 nM
IC50 ([15]; read-out: IC50 MAO-B): 200 nM and 203 nM
compound remaining in mouse microsome [11]: 74%

NNCCc1ccccc1 [phenelzine]
MAO activity in adipocytes [16]: inhibit MAO activity in adipocytes
144-hour barrier (TEER) vs control ([7]; 5 μm inhibitor): increased over control
144-hour barrier (TEER) vs control ([7]; 40 μm inhibitor): increased over control
effect on TEER (MAO A, B, AB inhibitors) [7]: increased TEER
effect on AR expression/secretion (MAO A, B, AB inhibitors) [17]: reduced AR expression
MAO activity [18]: inhibited MAO activity
body weight gain [18]: diminished body weight gain
intra-abdominal adipose tissue [18]: reduced intra-abdominal adipose tissue
histological indicators of periodontal disease ([19]; co-applied topically with LPS, rat): histological indicators of periodontal disease were reduced
local epithelial cell proliferation and migration, alveolar bone loss, PMN infiltration and systemic H2O2 ([19]; rat periodontal disease model, daily LPS): reduced
